Measurements: publication PMC4550478, “Metronidazole-triazole conjugates: Activity against Clostridium difficile and parasites” (European Journal of Medicinal Chemistry, 2015)
Converted amounts (≈) assume the structure as drawn. Like-named read-outs stand apart in the source and are kept apart here.

Assays:
[1] = tested on: C. difficile NAP1/027 CD26A54_R; experiment: MIC broth microdilution, metronidazole resistant C. difficile CD26A54_R; type: cell-based, Clostridium difficile; settings: for MIC: Clostridioides difficile
[2] = tested on: E. histolytica HM1:IMSS trophozoites; experiment: ATP-bioluminescence growth and survival assay, E. histolytica; type: cell-based, Entamoeba histolytica; settings: MtzS, 48 h, anaerobic, n = 3
Protocol: Compounds were tested for antiparasitic activity against E. histolytica (HM1:1MSS strain) and G. lamblia (WB, BRIS/87/HEPU/713 (713), BRIS/83/HEPU/106 (106) and the metronidazole resistant syngeneic line 713-M3 [[15,16]]) using an ATP-bioluminescence based screen for cell growth and survival [[17,18]]. Assay plates were inoculated with trophozoites (5 × 10^3 parasites/well) and incubated in the GasPak™ EZ Anaerobe Gas Generating Pouch Systems (VWR, West Chester, PA) to maintain anaerobic conditions throughout the incubation period. The assays were performed in triplicate using the CellTiter-Glo Luminescent Cell Viability Assay. Metronidazole was used as a positive control.
Trophozoites of E. histolytica strain HM1:IMSS and G. lamblia strains WB, BRIS/87/HEPU/713 (713),^10 BRIS/83/HEPU/106 (106)^11 and the metronidazole resistant syngenic line 713-M3^10,11 were axenically maintained in TYI-S-33 medium supplemented with penicillin (100 U/ml), streptomycin (100 µg/ml).^12 E. histolytica and G. lamblia trophozoites were counted using a particle counter (Beckman Coulter, Fullerton, CA). All experiments were performed using trophozoites harvested during the logarithmic phase of growth.
A three-fold serial dilution was then performed yielding a concentration range 0.25-625 µM. From this dilution plate, 4 µL were transferred into the 96-well screen plates followed by addition of 96 µL of trophozoites (5,000 parasites) to yield a final 8-point concentration range spanning 0.01- 25 µM. Assay plates were incubated for 48 h at 37 °C in the GasPak^TM EZ Anaerobe Gas Generating Pouch Systems (VWR, West Chester, PA) to maintain anaerobic condition throughout the incubation period. The assays were performed in triplicate using the CellTiter-Glo Luminescent Cell Viability Assay.^13

[3] = tested on: C. difficile NAP1/027 ATCC BAA-1803; experiment: MIC broth microdilution, C. difficile NAP1/027 ATCC BAA-1803; type: cell-based, Clostridium difficile; settings: for MIC: Clostridioides difficile
Protocol: All compounds were tested for activity against a set of anaerobic C. difficile bacteria (630 ATCC BAA-1382, NAP1/027 M7404, NAP1/027 ATCC BAA-1803, VPI10463 ATCC 43255, CD26A54_S and CD26A54_R) and representative ESKAPE pathogens S. aureus (MRSA ATCC 43300), E. coli (ATCC 25922), K. pneumoniae (ATCC 700603), A. baumannii (ATCC 19606) and P. aeruginosa (ATCC 27853) using a standard broth microdilution assay. Selected compounds were tested for activity against H. pylori strains (26695, and clinical isolates MtzS 13/25, MtzR 98/285 and MtzR 13/61) using agar plate dilution, and for antimicrobial activity against […] Gram-positive bacterial strains: Enterococcus faecalis (VanA clinical isolate), Enterococcus faecium (MDR VanA ATCC 51559), Streptococcus pneumoniae (MDR ATCC 700677), S. aureus (MRSA ATCC 43300, MRSA clinical isolate, MRSA/DRSA clinical isolate, GISA NARSA NRS 1, GISA NARSA NRS 17, VRSA NARSA VRS1, VRSA NARSA VRS4 and VRSA NARSA VRS10) using broth microdilution. C. difficile strains were grown at 37 °C in a COY anaerobic chamber (5% H2, 10% CO2, 85% N2). H. pylori strains were grown at 37 °C under a microaerobic atmosphere (5% O2, 10% CO2). All facultative anaerobic bacteria were grown at 37 °C with normal atmospheric oxygen levels. All experiments were performed in duplicate with metronidazole, vancomycin, linezolid or colistin as positive controls for relevant strains (see Table 1). Positive growth control of bacteria and DMSO as well as a negative control of only media were included for every plate. Full assay details are provided in the supplementary information.
C. difficile ATCC BAA-1382, ATCC BAA-1803, ATCC 43255 and M7404 heat shocked spore stocks (10 µL) were transferred into the anaerobic chamber and 10 µL streaked onto pre-reduced (at least 2.5 hr in anaerobic chamber) BHIS agar plates supplemented with 0.1% w/v sodium taurocholate (BHIS(TA)). Plates were incubated for 24 hours prior to assay to give colonies of size 1-3mm diameter with characteristic uneven borders.
The minimum inhibition concentration was determined according to the CLSI Methods with modifications in broth and inoculum for C. difficile according to Babakhani et al.^7,8 Briefly, compounds were prepared to 20X final concentration in 100% water, 60% DMSO and 40% water or 60% DMSO and 40% media. The compounds along with standard antibiotics were serially diluted two-fold across the wells of 96-well non-binding surface plates (Non binding surface, Corning). The plates were placed in the anaerobic chamber overnight to reduce. C. difficile bacteria from BHIS(TA) agar plates were cultured anaerobically in BHIS at 37 °C overnight. A sample of culture was then diluted 40-fold in BHIS broth and incubated at 37 °C for approximately 4.5 hrs. The resultant mid-log phase culture (OD600= 0.5-0.6) was diluted to the final concentration of ~1×10^6 CFU/mL, then 50 µL was added to each well of the compound-containing 96-well plates. This gave final cell concentration of 5×10^5 CFU/mL, final volume 100 µL and 3% maximum DMSO concentration. Compound concentration was typically from 64 to 0.03 µg/mL. An antibiotic standard was included on each 96 well plate as well as a positive growth control (no compound) and sterility control (no bacteria). […] MICs were the lowest concentration showing no visible growth.

[4] = 24 hr incubation, read-out: MIC C. difficile NAP1/027 CD26A54_R 24 hr
[5] = CD26A54_R, MtzR, 48 h growth, BHIS broth, n = 8, read-out: MIC C. difficile NAP1/027 CD26A54_R 48 h
[6] = ATCC 43255 / ATCC BAA-1803, NAP1/027 (footnote c: ATCC 43255), MtzS, 24 h, median of at least n = 4, read-out: MIC C. difficile NAP1/027 (footnote c)
[7] = ATCCBAA1803, 24 hr incubation, read-out: MIC C. difficile NAP1/027 ATCC BAA-1803 24 hr
[8] = ATCCBAA1803, 48 hr incubation, read-out: MIC C. difficile NAP1/027 ATCC BAA-1803 48 hr

## Cc1ncc([N+](=O)[O-])n1CCn1cc(C(=O)O)nn1 [Compound 4s, 1-(2-(2-methyl-5-nitro-1H-imidazol-1-yl)ethyl)-4-(carboxy)-1H-1,2,3-triazole]
[1]; [4]
  MIC: > 64 µg/mL
[1]; [5]
  MIC: > 64 µg/mL
[2]; Entamoeba histolytica
  EC50: > 25 µM
[3]; [6]
  MIC: 64 µg/mL (≈ 240 µM)
[3]; [7]
  MIC: 64 µg/mL (≈ 240 µM)
[3]; [8]
  MIC: 64 µg/mL (≈ 240 µM)

## Cc1ncc([N+](=O)[O-])n1CCn1cc(CN(C)Cc2ccccc2)nn1 [Compound 4m, 1-(2-(2-methyl-5-nitro-1H-imidazol-1-yl)ethyl)-4-(N-benzyl, N-methylaminomethyl)-1H-1,2,3-triazole]
[1]; [4]
  MIC: 8 µg/mL (≈ 22.5 µM)
[1]; [5]
  MIC: 8 µg/mL (≈ 22.5 µM)
[2]; Entamoeba histolytica
  EC50: 4.6 µM
[3]; [6]
  MIC: 1 µg/mL (≈ 2.81 µM)
[3]; [7]
  MIC: 2 µg/mL (≈ 5.63 µM)
[3]; [8]
  MIC: 1 to 2 µg/mL (≈ 2.81 to 5.63 µM)

## Cc1ccc(-c2cn(CCn3c([N+](=O)[O-])cnc3C)nn2)cc1 [Compound 4e, 1-(2-(2-methyl-5-nitro-1H-imidazol-1-yl)ethyl)-4-(p-tolyl)-1H-1,2,3-triazole]
[1]; [4]
  MIC: 2 µg/mL (≈ 6.4 µM)
[1]; [5]
  MIC: 2 µg/mL (≈ 6.4 µM)
[2]; Entamoeba histolytica
  EC50: 3.7 µM
[3]; [6]
  MIC: 0.5 µg/mL (≈ 1.6 µM)
[3]; [7]
  MIC: 0.5 µg/mL (≈ 1.6 µM)
[3]; [8]
  MIC: 0.5 µg/mL (≈ 1.6 µM)

## Cc1ncc([N+](=O)[O-])n1CCN=[N+]=[N-] [Compound 3, 1-(2-azidoethyl)-2-methyl-5-nitro-1H-imidazole]
[1]; 24 hr incubation
  MIC C. difficile NAP1/027 CD26A54_R 24 hr: 4 µg/mL (≈ 20.4 µM)
[1]; CD26A54_R, MtzR, 48 h growth, BHIS broth, n = 8
  MIC C. difficile NAP1/027 CD26A54_R 48 h: 8 µg/mL (≈ 40.8 µM)
[2]
  EC50: 2.1 µM
[3]; 24 hr incubation
  MIC C. difficile NAP1/027 ATCC BAA-1803 24 hr: 0.5 µg/mL (≈ 2.55 µM)
[3]; 48 hr incubation
  MIC C. difficile NAP1/027 ATCC BAA-1803 48 hr: 1 µg/mL (≈ 5.1 µM)
[3]; NAP1/027 (footnote c: ATCC 43255), MtzS, 24 h, median of at least n = 4
  MIC C. difficile NAP1/027 (footnote c): 0.5 µg/mL (≈ 2.55 µM)

## Cc1ncc([N+](=O)[O-])n1CCn1cc(Cc2ccccc2)nn1 [Compound 4k, 1-(2-(2-methyl-5-nitro-1H-imidazol-1-yl)ethyl)-4-benzyl-1H-1,2,3-triazole]
[1]; [4]
  MIC: 2 µg/mL (≈ 6.4 µM)
[1]; [5]
  MIC: 4 µg/mL (≈ 12.8 µM)
[2]; Entamoeba histolytica
  EC50: 1.9 µM
[3]; [6]
  MIC: 0.5 µg/mL (≈ 1.6 µM)
[3]; [7]
  MIC: 0.5 µg/mL (≈ 1.6 µM)
[3]; [8]
  MIC: 0.5 µg/mL (≈ 1.6 µM)

## Cc1ncc([N+](=O)[O-])n1CCn1cc(-c2ccccn2)nn1 [Compound 4h, 1-(2-(2-methyl-5-nitro-1H-imidazol-1-yl)ethyl)-4-(2-pyridinyl)-1H-1,2,3-triazole.xTFA]
[1]; [4]
  MIC: 2 µg/mL
[1]; [5]
  MIC: 4 µg/mL
[2]; Entamoeba histolytica
  EC50: 4.6 µM
[3]; [6]
  MIC: 0.5 µg/mL
[3]; [7]
  MIC: 0.5 µg/mL
[3]; [8]
  MIC: 0.5 to 1 µg/mL

## Cc1ncc([N+](=O)[O-])n1CCn1cc(CO)nn1 [Compound 4q, 1-(2-(2-methyl-5-nitro-1H-imidazol-1-yl)ethyl)-4-(hydroxymethyl)-1H-1,2,3-triazole]
[1]; [4]
  MIC: 16 µg/mL (≈ 63.4 µM)
[1]; [5]
  MIC: 16 µg/mL (≈ 63.4 µM)
[2]; Entamoeba histolytica
  EC50: > 25 µM
[3]; [6]
  MIC: 16 to 32 µg/mL (≈ 63.4 to 127 µM)
[3]; [7]
  MIC: 16 µg/mL (≈ 63.4 µM)
[3]; [8]
  MIC: 16 to 32 µg/mL (≈ 63.4 to 127 µM)

## Cc1ncc([N+](=O)[O-])n1CCn1cc(CCO)nn1 [Compound 4p, 1-(2-(2-methyl-5-nitro-1H-imidazol-1-yl)ethyl)-4-(2-hydroxyethyl)-1H-1,2,3-triazole]
[1]; [4]
  MIC: 8 to 16 µg/mL (≈ 30 to 60.1 µM)
[1]; [5]
  MIC: 16 µg/mL (≈ 60.1 µM)
[2]; Entamoeba histolytica
  EC50: > 25 µM
[3]; [6]
  MIC: 16 µg/mL (≈ 60.1 µM)
[3]; [7]
  MIC: 8 µg/mL (≈ 30 µM)
[3]; [8]
  MIC: 8 to 16 µg/mL (≈ 30 to 60.1 µM)
